The record followed here is US11679108B2, “Aromatic heterocyclic compound, and pharmaceutical composition and use thereof” (GUANGZHOU HENOVCOM BIOSCIENCE CO., LTD., priority 2018, dated 2023).

The target in the experiment is ATX (Homo sapiens, UniProt Q13822). In words: Analysis in vitro: LPC was used as substrate for screening enzyme activity (Amplex Red fluorescence). Conditions: inhibitory activity against ATX, with LPC as substrate. Format: biochemical. The source says: Analysis In Vitro: LPC was Used as Substrate for Screening Enzyme Activity
Principle: Lysophosphatidylcholine (LPC) as substrate is hydrolyzed by using the activity of lysoPLD enzyme, to produce lysophosphatidic acid (LPA) and choline, which is oxidized to produce H2O2 under the action of choline oxidase. In presence of horse radish peroxidase (HPR), Amplex Red reagent is reacted with H2O2 in a quantitative chemistry ratio of 1 to 1, to produce strong fluorescence products, which are detected by a fluorescent quantitative test.
Experimental procedures: the compounds to be tested were dissolved in DMSO, to prepare 10 mM of stock solution, which was diluted in a gradient concentration of 3 times with DMSO from 10 mM, to generate 10 concentration gradients. The reaction buffer solution was used for preparing a mixed solution 1 of 2 ng/μl ATX, 2 U/ml HRP and 0.2 U/ml choline oxidase in a final concentration. 20 μl of the above mixed solution 1 was added to each hole of an experiment board, […]. The compounds diluted with DMSO were transferred into an experiment board with Echo550. The reaction buffer solution was used for preparing a mixed solution 2 of […] LPC and 400 μM Amplex Red in a final concentration. 20 μl of the above mixed solution 2 was added to each hole of the experiment board. After addition, the experiment board was shook for 30 seconds on a shaker, and incubated for 30 minutes. Envision was used to read the fluorescence signals with an exciting light at 530 nm and emitted light at 590 nm. Inhibition ratio of the compounds to enzyme reaction was calculated according to the ratio of fluorescence, and IC50 of the compounds was analyzed and calculated by software, seeing Table 1.

Structures are written as SMILES.

What is called IC50 is the concentration at which inhibition is half-maximal. Lower therefore signals greater potency. On to `CCc1nc2sc(N3CCN(S(C)(=O)=O)CC3)nn2c1N(C)c1nc(-c2ccc(F)cc2)c(C#N)s1` [Example 1], for which the IC50 is at least 1000 nM. Take `CCc1nc2sc(N3CCC4(CC3)CN(S(C)(=O)=O)C4)nn2c1N(C)c1nc(-c2ccc(F)cc2)c(C#N)s1` [Example 3, 2-{[6-ethyl-2-(4-(methylsulfonyl)-2,7-diazaspiro[3.5]nonan-7-yl)imidazo[2,1-b][1,3,4]thiadiazol-5-yl](methyl)amino}-4-(4-fluorophenyl)thiazole-5-carbonitrile]: the IC50 lay in the range of 500 to 1000 nM.

Regarding `CCc1nc2sc(N3CC4(C3)CN(S(C)(=O)=O)C4)nn2c1N(C)c1nc(-c2ccc(F)cc2)c(C#N)s1` [Example 5], the IC50 lay within 500 to 1000 nM. The same measure for `CCc1nc2sc(N3CC4(CN(CC(=O)N5CC(O)C5)C4)C3)nn2c1N(C)c1nc(-c2ccc(F)cc2)c(C#N)s1` [Example 6]: 100 to 500 nM. For `CCc1nc2sc(N3CCCC(N(C)S(C)(=O)=O)C3)nn2c1N(C)c1nc(-c2ccc(F)cc2)c(C#N)s1` (stereo not drawn) [Example 13, N-{1-[5-((5-cyano-4-(4-fluorophenyl)thiazol-2-yl)(methyl)amino)-6-ethylimidazo[2,1-b][1,3,4]thiadiazol-2-yl]piperidin-3-yl}-N-methylmethanesulfonamide], the IC50 lay in the range of 100 to 500 nM. The same measure for `CCc1nc2sc(C3CCN(S(C)(=O)=O)CC3)nn2c1N(C)c1nc(-c2ccc(F)cc2)c(C#N)s1` [Example 16, 2-{[6-ethyl-2-(1-(methylsulfonyl)piperidin-4-yl)imidazo[2,1-b][1,3,4]thiadiazol-5-yl](methyl)amino}-4-(4-fluorophenyl)-thiazole-5-carbonitrile]: at least 1000 nM; for `CCc1nc2sc(C3CCN(C(N)=O)CC3)nn2c1N(C)c1nc(-c2ccc(F)cc2)c(C#N)s1` [Example 18, 4-{5-[(5-cyano-4-(4-fluorophenyl)thiazol-2-yl](methyl)amino]-6-ethylimidazo[2,1-b][1,3,4]thiadiazol-2-yl}piperidine-1-carboxamide]: 100 to 500 nM. The same measure for `CCc1nc2sc(N3CCC(N(C)C(=O)NC(C)(C)C)C3)nn2c1N(C)c1nc(-c2ccc(F)cc2)c(C#N)s1` (stereo not drawn) [Example 25, 3-tertbutyl-1-{1-[5-((5-cyano-4-(4-fluorophenyl)thiazol-2-yl)(methyl)amino)-6-ethylimidazo[2,1-b][1,3,4]thiadiazol-2-yl]pyrrolidin-3-yl}-1-methylurea]: 100 to 500 nM. The same measure for `CCc1nc2sc(N3CCCC(N(C)C(=O)NC(C)(C)C)C3)nn2c1N(C)c1nc(-c2ccc(F)cc2)c(C#N)s1` (stereo not drawn) [Example 26, 3-tert-butyl-1-{1-[5-((5-cyano-4-(4-fluorophenyl)thiazol-2-yl)(methyl)amino)-6-ethylimidazo[2,1-b][1,3,4]thiadiazol-2-yl]piperidin-3-yl}-1-methylurea]: at least 1000 nM; for `CCc1nc2sc(N3CCC(N(C)C(=O)NC4CC4)C3)nn2c1N(C)c1nc(-c2ccc(F)cc2)c(C#N)s1` (stereo not drawn) [Example 27, 1-{1-[5-((5-cyano-4-(4-fluorophenyl)thiazol-2-yl)(methyl)amino)-6-ethylimidazo[2,1-b][1,3,4]thiadiazol-2-yl}pyrrolidin-3-yl}-3-cyclopropyl-1-methylurea]: 100 to 500 nM. The compound `CCc1nc2sc(N3CCC(N(C)S(=O)(=O)C4CC4)C3)nn2c1N(C)c1nc(-c2ccc(F)cc2)c(C#N)s1` (stereo not drawn) [Example 28, N-{1-[5-((5-cyano-4-(4-fluorophenyl)thiazol-2-yl)(methyl)amino)-6-ethylimidazo[2,1-b][1,3,4]thiadiazol-2-yl}pyrrolidin-3-yl}-N-methylcyclopropanesulfonamide] had an IC50 of 100 to 500 nM. Then `CCc1nc2sc(N3CCC(N(C)C(=O)NC)C3)nn2c1N(C)c1nc(-c2ccc(F)cc2)c(C#N)s1` (stereo not drawn) [Example 29, 1-{1-[5-((5-cyano-4-(4-fluorophenyl)thiazol-2-yl)(methyl)amino)-6-ethylimidazo[2,1-b][1,3,4]thiadiazol-2-yl}pyrrolidin-3-yl}-1,3-dimethylurea], with 0.01 to 100 nM. Then `CCc1nc2sc(N3CCC(N(C)C(=O)N4CC(O)C4)C3)nn2c1N(C)c1nc(-c2ccc(F)cc2)c(C#N)s1` (stereo not drawn) [Example 30, N-{1-[5-((5-cyano-4-(4-fluorophenyl)thiazol-2-yl)(methyl)amino)-6-ethylimidazo[2,1-b][1,3,4]thiadiazol-2-yl}pyrrolidin-3-yl}-3-hydroxy-N-methylazetidine-1-carboxamide], with 0.01 to 100 nM. Then `CCc1nc2sc(N3CCC(N(C)C(=O)N(C)C)C3)nn2c1N(C)c1nc(-c2ccc(F)cc2)c(C#N)s1` (stereo not drawn) [Example 31, 1-{1-[5-((5-cyano-4-(4-fluorophenyl)thiazol-2-yl)(methyl)amino)-6-ethylimidazo[2,1-b][1,3,4]thiadiazol-2-yl]pyrrolidin-3-yl}-1,3,3-trimethylurea], with 100 to 500 nM; and `CCc1nc2sc(N3CCC(N(C)C(=O)N4CCOCC4)C3)nn2c1N(C)c1nc(-c2ccc(F)cc2)c(C#N)s1` (stereo not drawn) [Example 32, N-{1-[5-((5-cyano-4-(4-fluorophenyl)thiazol-2-yl)(methyl)amino)-6-ethylimidazo[2,1-b][1,3,4]thiadiazol-2-yl}pyrrolidin-3-yl}-N-methylmorpholine-4-carboxamide], with 100 to 500 nM.

On to `CCc1nc2sc(N3CCC(N(C)CC(=O)N4CC(F)C4)C3)nn2c1N(C)c1nc(-c2ccc(F)cc2)c(C#N)s1` (stereo not drawn) [Example 33, 2-{[6-ethyl-2-(3-((2-(3-fluoroazetidin-1-yl)-2-oxoethyl)(methyl)amino)pyrrolidin-1-yl)imidazo[2,1-b][1,3,4]thiadiazol-5-yl](methyl)amino}-4-(4-fluorophenyl)thiazole-5-carbonitrile], for which the IC50 was 0.01 to 100 nM.

Take `CCc1nc2sc(N3CCC(N(C)CC(=O)N4CCOCC4)C3)nn2c1N(C)c1nc(-c2ccc(F)cc2)c(C#N)s1` (stereo not drawn) [Example 34, 2-{[6-ethyl-2-(3-(methyl(2-mophlin-2-oxoethyl)amino)pyrrolidin-1-yl)imidazo[2,1-b][1,3,4]thiadiazol-5-yl](methyl)amino}-4-(4-fluorophenyl)thiazole-5-carbonitrile]: the IC50 lay within 0.01 to 100 nM.

Consider `CCc1nc2sc(N3CCC(N(C)CC(=O)N4CC(C(=O)O)C4)C3)nn2c1N(C)c1nc(-c2ccc(F)cc2)c(C#N)s1` (stereo not drawn) [Example 35, 1-{2-[(1-(5-((5-cyano-4-(4-fluorophenyl)thiazol-2-yl)(methyl)amino)-6-ethylimidazo[2,1-b][1,3,4]thiadiazol-2-yl)pyrrolidin-3-yl)(methyl)amino]acetyl}azetidine-3-carboxylic acid], for which the IC50 lay within 0.01 to 100 nM. In turn, `CCc1nc2sc(N3CC[C@@H](N(C)CC(=O)N4CC(F)C4)C3)nn2c1N(C)c1nc(-c2ccc(F)cc2)c(C#N)s1` [Example 39, (R)-2-{[6-ethyl-2-(3-((2-(3-fluoroazetidin-1-yl)-2-oxoethyl)(methyl)amino)pyrrolidin-1-yl)imidazo[2,1-b][1,3,4]thiadiazol-5-yl](methyl)amino}-4-(4-fluorophenyl)thiazole-5-carbonitrile] yielded an IC50 of 100 to 500 nM. Then `CCc1nc2sc(N3CC[C@@H](N(C)CC(=O)N4CCOCC4)C3)nn2c1N(C)c1nc(-c2ccc(F)cc2)c(C#N)s1` [Example 40, (R)-2-{[6-ethyl-2-(3-(methyl(2-morpholino-2-oxoethyl)amino)pyrrolidin-1-yl)imidazo[2,1-b][1,3,4]thiadiazol-5-yl](methyl)amino}-4-(4-fluorophenyl)thiazole-5-carbonitrile], with 100 to 500 nM; and `CCc1nc2sc(N3CC[C@@H](N(C)CC(=O)N4CC(C(=O)OC)C4)C3)nn2c1N(C)c1nc(-c2ccc(F)cc2)c(C#N)s1` [Example 42, methyl (R)-1-{2-[(1-(5-((5-cyano-4-(4-fluorophenyl)thiazol-2-yl)(methyl)amino)-6-ethylimidazo[2,1-b][1,3,4]thiadiazol-2-yl)pyrrolidin-3-yl)(methyl)amino]acetyl}azetidine-3-carboxylate], with 100 to 500 nM. The same measure for `CCc1nc2sc(N3CC[C@H](N(C)CC(=O)N4CC(C(=O)OC)C4)C3)nn2c1N(C)c1nc(-c2ccc(F)cc2)c(C#N)s1` [Example 43, methyl (S)-1-{2-[(1-(5-((5-cyano-4-(4-fluorophenyl)thiazol-2-yl)(methyl)amino)-6-ethylimidazo[2,1-b][1,3,4]thiadiazol-2-yl)pyrrolidin-3-yl)(methyl)amino]acetyl}azetidine-3-carboxylate]: 0.01 to 100 nM.

Compound `CCc1nc2sc(N3CC[C@@H](N(C)CC(=O)N4CC(C(=O)O)C4)C3)nn2c1N(C)c1nc(-c2ccc(F)cc2)c(C#N)s1` [Example 44, (R)-1-{2-[(1-(5-((5-cyano-4-(4-fluorophenyl)thiazol-2-yl)(methyl)amino)-6-ethylimidazo[2,1-b][1,3,4]thiadiazol-2-yl}pyrrolidin-3-yl)(methyl)amino]acetyl}azetidine-3-carboxylic acid] showed an IC50 of 100 to 500 nM. `CCc1nc2sc(N3CC[C@@H](N(C)CC(=O)N4CC(C#N)C4)C3)nn2c1N(C)c1nc(-c2ccc(F)cc2)c(C#N)s1` [Example 46, (R)-2-{[2-(3-((2-(3-cyanoazetidin-1-yl)-2-oxoethyl)(methyl)amino)pyrrolidin-1-yl)-6-ethylimidazo[2,1-b][1,3,4]thiadiazol-5-yl](methyl)amino}-4-(4-fluorophenyl)thiazole-5-carbonitrile] returned an IC50 of 100 to 500 nM.
